Experiment [1] concerns the target human STING C-terminal domain (CTD, residues 139–379) (Homo sapiens, UniProt Q86WV6, H232R). The experiment is described as follows: Isothermal titration calorimetry. The conditions noted are these: direct ITC titration. A general note: ITC needs no label: the signal is the heat of the interaction.
For another experiment, the target named is R232H human STING (Homo sapiens, UniProt Q86WV6). Kind of experiment: IFNβ induction. The conditions noted are these: L929 cells expressing R232H human STING; IFN-β RNA by q-RT-PCR.
R232H human STING, sequence (Q86WV6 whole entry, stated change not applied): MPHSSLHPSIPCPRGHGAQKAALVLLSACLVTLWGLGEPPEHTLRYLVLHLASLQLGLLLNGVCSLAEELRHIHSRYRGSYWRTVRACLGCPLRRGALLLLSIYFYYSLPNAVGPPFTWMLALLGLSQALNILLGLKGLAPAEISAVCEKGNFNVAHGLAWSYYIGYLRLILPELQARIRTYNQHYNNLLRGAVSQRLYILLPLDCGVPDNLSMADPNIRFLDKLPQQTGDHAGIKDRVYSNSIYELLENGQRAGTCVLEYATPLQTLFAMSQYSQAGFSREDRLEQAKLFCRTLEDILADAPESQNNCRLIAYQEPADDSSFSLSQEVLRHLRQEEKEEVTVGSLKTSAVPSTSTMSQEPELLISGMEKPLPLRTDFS
The target of another experiment is WT human STING (Homo sapiens, UniProt Q86WV6, H232R). Kind of experiment: IFNβ induction. Particulars: L929 cells expressing WT human STING; IFN-β RNA by q-RT-PCR.
WT human STING, sequence (Q86WV6 whole entry H232R): as the sequence (Q86WV6 whole entry, stated change not applied) above, with H232R counted along it
Another experiment addresses R232A human STING (Homo sapiens, UniProt Q86WV6, H232A). The experiment is described as follows: IFNβ induction. The conditions noted are these: L929 cells expressing R232A human STING; IFN-β RNA by q-RT-PCR.

Results on 2 molecules are retold here after paper PMC3808999 (Molecular cell, 2013).

human STING C-terminal domain (CTD, residues 139–379), sequence (Q86WV6 139-379 H232R): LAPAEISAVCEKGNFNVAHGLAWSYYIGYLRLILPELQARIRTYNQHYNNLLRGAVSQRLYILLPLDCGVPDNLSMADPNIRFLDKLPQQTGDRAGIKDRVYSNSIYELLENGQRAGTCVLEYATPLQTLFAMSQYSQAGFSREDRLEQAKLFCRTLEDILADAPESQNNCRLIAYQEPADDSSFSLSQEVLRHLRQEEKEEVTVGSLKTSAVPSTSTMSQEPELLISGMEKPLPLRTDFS
R232A human STING, sequence (Q86WV6 whole entry H232A): as the sequence (Q86WV6 whole entry, stated change not applied) above, with H232A counted along it

On to `Nc1nc2c(ncn2[C@@H]2O[C@@H]3COP(=O)(O)O[C@H]4[C@@H](O)[C@H](n5cnc6c(=O)[nH]c(N)nc65)O[C@@H]4COP(=O)(O)O[C@H]3[C@H]2O)c(=O)[nH]1` [c-di-GMP, cyclic di-GMP], for which, in experiment [1], the “heat character of binding to STING” value is “exothermic”.
Turning to poly[I:C], the IFNβ induction entry at R232H human STING, on WT human STING and at R232A human STING was “stimulated IFNβ expression” in each case.
